Where “and” joins values, the source holds several entries; their conditions need not be identical. Equal entries are not always repeated. Values belong to the molecule of their own block, whether it stands above or below them.
Key:
[1] = Nisin stability in topical germicide formulations under stressed conditions (RPHPLC); details: for Residual nisin concentration as a percentage of the theoretical concentration: 5 days 40° C., pH 6, additive 1 mM (nisin = control)
Text: i) Analytical reverse phase high pressure liquid chromatography (RPHPLC). The analyte (nisin) in solution is passed through a column of hydrophic beads to which the nisin tends to bind. The solution flowing through the column is then made progressively more hydrophobic by increasing acetonitrile concentration until it causes the nisin to be released from the beads and eluted from the column. The emergence of the nisin from the column is detected by measuring the absorbance of light at 210 nm by the effluent.
In order to expedite the execution of these experiments the formulations were subjected to "stressed" conditions, ie pH 6 and 40° C.; both intended to accelerate any degradation effects taking place. The stability of nisin in the formulations was evaluated by RPHPLC.
Formulations were prepared with nisin at 25 μg/ml and titrated to pH 6. […]

[2] = Commonly used antioxidants tested for protection of nisin in formulation; assay type: physicochemical; details: methods of Example 2
Description: In order to further analyze the nisin degradation associated with one particular surfactant/emulsifier, polysorbate, material was obtained from as many manufacturers as possible. Where possible, multiple production batches were obtained from each manufacturer. Other emulsifiers or surfactants believed to closely resemble polysorbate in their properties as well as dissimilar surfactants were also tested. An oral rinse formulation containing nisin was prepared using each of these compounds and, after incubation, samples were analyzed to evaluate nisin stability.
A number of commonly used antioxidants were tested for their ability to protect nisin in formulation using the methods described in Example 2. None of the compounds tested gave satisfactory protection of nisin.

[3] = Glycerol/sorbitol batches and chelating agents screened for effects on nisin stability in oral rinse formulations (RPHPLC); assay type: physicochemical
Description: i) Analytical reverse phase high pressure liquid chromatography (RPHPLC).
Formulations of nisin useful as oral rinses comprising EDTA and the humectant glycerol were also prepared and analyzed by RPHPLC.
Glycerol and sorbitol from a number of sources, and a number of alternative chelators, were screened (Tables 2 and 3).

[4] = T-MAZ 20 1%, 6 days at 40° C., initial nisin 25 μg/ml, label nisin = no methionine
[5] = T-MAZ 20 BATCH 348, 2 weeks at 40° C., nisin formulated at 25 μg/ml, label nisin = water control
[6] = T-MAZ 20 BATCH 357, 2 weeks at 40° C., nisin formulated at 25 μg/ml, label nisin = water control
[7] = T-MAZ 20 batch 348, EDTA 1 mM, nisin 25 μg/ml, samples jd6-35-H 49-52
[8] = T-MAZ 20 batch 348, citrate 0.1%, nisin 25 μg/ml, samples jd6-35-H 53-56
[9] = T-MAZ 20 batch 348, citrate 0.3%, nisin 25 μg/ml, samples jd6-35-H 57-60
[10] = T-MAZ 20 batch 348, citrate 1.0%, nisin 25 μg/ml, samples jd6-35-H 61-64
[11] = T-MAZ 20 batch 357, EDTA 1 mM, nisin 25 μg/ml, samples jd6-35-H 33-36
[12] = T-MAZ 20 batch 357, citrate 0.1%, nisin 25 μg/ml, samples jd6-35-H 37-40
[13] = T-MAZ 20 batch 357, citrate 0.3%, nisin 25 μg/ml, samples jd6-35-H 41-44
[14] = T-MAZ 20 batch 357, citrate 1.0%, nisin 25 μg/ml, samples jd6-35-H 45-48

Compound: COC(=O)C(N)CCSC (racemic) [DL-methionine methyl ester]
- Residual nisin concentration [1, 4]: 21.9 µg/mL and 20.8 µg/mL

Compound: CS(=O)(=O)CCC(N)C(=O)O (racemic) [DL-methionine sulfone]
- Residual nisin concentration [1, 4]: 8.6 µg/mL

Compound: C[S+]([O-])CCC(N)C(=O)O (racemic) [DL-methionine sulfoxide]
- Residual nisin concentration [1, 4]: 8.6 µg/mL

Compound: CSCCC(N)C(=O)O (racemic) [DL-methionine]
- Residual nisin concentration [1, 4]: 19.7 µg/mL

Compound: CSCCC(O)C(=O)O (racemic) [MHA, 2-hydroxy-4-(methylthio)butanoic acid]
- Residual nisin concentration ([1]; T-MAZ 20 1%, 6 days at 40° C., initial nisin 25 μg/ml, label nisin = no methionine, listed as methionine hydroxy analog (MHA Novus)): 19.8 µg/mL
- Residual nisin concentration ([1]; T-MAZ 20 1%, 6 days at 40° C., initial nisin 25 μg/ml, label nisin = no methionine, listed as methionine hydroxy analog (Sigma)): 18.1 µg/mL
- Residual nisin concentration [1, 5]: 23.4 µg/mL
- Residual nisin concentration [1, 6]: 22.5 µg/mL

- Protection of nisin in formulation by antioxidants, in words [2]: aggravated the stability problem
Compound: O[C@H](CS)[C@H](O)CS (racemic) [dithiothreitol]

Compound: N[C@@H](CS)C(=O)O [CySH, cysteine]
- Residual nisin concentration as a percentage of the theoretical concentration [1, 7]: 51%
- Residual nisin concentration as a percentage of the theoretical concentration [1, 8]: 36%
- Residual nisin concentration as a percentage of the theoretical concentration [1, 9]: 29%
- Residual nisin concentration as a percentage of the theoretical concentration [1, 10]: 33%
- Residual nisin concentration as a percentage of the theoretical concentration [1, 11]: 85%
- Residual nisin concentration as a percentage of the theoretical concentration [1, 12]: 29%
- Residual nisin concentration as a percentage of the theoretical concentration [1, 13]: 36%
- Residual nisin concentration as a percentage of the theoretical concentration [1, 14]: 31%

Compound: CSCC[C@H](N)C(=O)O [L-methionine]
- Residual nisin concentration [1, 4]: 19.9 µg/mL

Compound: NCCCC[C@H](N)C(=O)O [Lys, lysine]
- Residual nisin concentration as a percentage of the theoretical concentration [1, 7]: 56%
- Residual nisin concentration as a percentage of the theoretical concentration [1, 8]: 45%
- Residual nisin concentration as a percentage of the theoretical concentration [1, 9]: 47%
- Residual nisin concentration as a percentage of the theoretical concentration [1, 10]: 49%
- Residual nisin concentration as a percentage of the theoretical concentration [1, 11]: 80%
- Residual nisin concentration as a percentage of the theoretical concentration [1, 12]: 71%
- Residual nisin concentration as a percentage of the theoretical concentration [1, 13]: 71%
- Residual nisin concentration as a percentage of the theoretical concentration [1, 14]: 71%

- Protection of nisin in formulation by antioxidants, in words [2]: aggravated the stability problem
Compound: O=C1O[C@H]([C@@H](O)CO)C(O)=C1O [ascorbate, ascorbic acid]

- Effect of humectant (glycerol, sorbitol) and chelating agent on nisin stability, in words [3]: superior to EDTA
Compound: O=C(O)CC(O)(CC(=O)O)C(=O)O [citrate]

Compound: N[C@@H](CS(=O)(=O)O)C(=O)O [cysteic acid]
- Residual nisin concentration [1, 5]: 9.6 µg/mL
- Residual nisin concentration [1, 6]: 19.5 µg/mL

Compound: N[C@@H](CSSC[C@H](N)C(=O)O)C(=O)O [cystine]
- Residual nisin concentration [1, 5]: 9.0 µg/mL
- Residual nisin concentration [1, 6]: 11.1 µg/mL

Compound: N[C@@H](CSC[C@H](N)C(=O)O)C(=O)O [lanthionine]
- Residual nisin concentration [1, 5]: 10.7 µg/mL
- Residual nisin concentration [1, 6]: 18.2 µg/mL

Compound: CSCC[C@H](N)C(=O)O [methionine]
- Residual nisin concentration [1, 5]: 23.3 µg/mL
- Residual nisin concentration [1, 6]: 23.2 µg/mL
- Residual nisin concentration as a percentage of the theoretical concentration [1, 7]: 80%
- Residual nisin concentration as a percentage of the theoretical concentration [1, 8]: 76%
- Residual nisin concentration as a percentage of the theoretical concentration [1, 9]: 73%
- Residual nisin concentration as a percentage of the theoretical concentration [1, 10]: 73%
- Residual nisin concentration as a percentage of the theoretical concentration [1, 11]: 84%
- Residual nisin concentration as a percentage of the theoretical concentration [1, 12]: 75%
- Residual nisin concentration as a percentage of the theoretical concentration [1, 13]: 76%
- Residual nisin concentration as a percentage of the theoretical concentration [1, 14]: 73%

Compound: O=S([O-])[O-].[Na+].[Na+] [sodium sulfite]
- Protection of nisin in formulation by antioxidants, in words [2]: aggravated the stability problem

Compound: C1CSCN1 [thizaolidine, thiazolidine]
- Residual nisin concentration [1, 5]: 14.9 µg/mL
- Residual nisin concentration [1, 6]: 17.3 µg/mL
- Stabilization of nisin from degradation by sulfur-containing compounds, in words ([1]; nisin 25 μg/ml, T-MAZ 20, propyleneglycol, 1-propanol, EDTA or citrate, pH 6, 40° C.): To a lesser degree, nisin was also stabilized
